# Patent US20240018166A1, “SULFONYL UREA NLRP3 INFLAMMASOME INHIBITORS” (Venatorx Pharmaceuticals, Inc., priority 2020, published 2024)
# Experiments:
# IL-1β = IL-1β inhibition assay (ELISA/HTRF of culture supernatants); format: cell-based; settings: Homo sapiens, PMA-differentiated THP-1 cells, tested 10 μM to 0.003 μM
# Protocol: Human monocyte-like THP-1 cells were grown in RPMI media supplemented with 10% FBS (growth media) at 37° C., 5% CO2. Cell cultures were passaged every three days and maintained at a density of 5×10^5 to 1×10^6 cells per mL.
# Compounds were prepared as 10 mM stock solutions in 100% DMSO. […] Each 200× dilution was then diluted 20-fold in growth media (step down dilution) to yield a 10× final assay concentration range. All compounds were tested over a final assay concentration range of 10 μM to 0.003 μM.
# The level of IL-10 in supernatants from PMA-differentiated THP-1 cells was determined by ELISA using either the R&D Systems Human IL-1 beta/IL-1F2 Quantikine ELISA or the cisbio HTRF human IL 1 beta kit. Manufacturer's protocols were followed without deviation.
# Background values were subtracted and resulting values were converted to percentage of vehicle-treated controls. Data was analyzed via GraphPad Prism 7.0 using a non-linear regression (variable slope (four-parameter)) equation.
# Table 2 provides IL-10 ELISA EC50 values for example compounds. A indicates EC50>10 μM; B indicates EC50 between 1 and 10 μM (inclusive); C indicates EC50<1 μM.
# [1] = MTT cell viability assay, THP-1 cells; format: cell-based; settings: human, unstimulated THP-1 cells, read-out: THP-1 Cytotoxicity CC50
# Protocol: In order to assess the cytotoxicity of the compounds, an MTT cell viability assay was performed in either unstimulated THP-1 or HepG2 cells as follows. 5×10^4 THP-1 or 5×10^3 HepG2 cells were seeded into each well of a 96-well plate in 90 μL of media. Compounds were added to cells as described for the IL-10 assay and returned to the incubator for an additional 72 hours. Next, 25 μL of MTT solution (5 mg/mL in sterile PBS) was added to each well. Plates were incubated for 3 hours at 37° C., 5% CO2. Next, for THP-1 cells, 100 μl of MTT solubilization solution (40% Dimethylformamide, 2% glacial acetic acid, 16% sodium dodecyl sulfate) was then added to each well and plates were incubated at room temperature in the dark overnight. For HepG2 cells, media was aspirated, 50 μL of DMSO was added and plates were mixed briefly with an orbital plate shaker. Absorbance at 570 nm was measured using a Perkin-Elmer EnVision plate reader.
# Absorbance values were converted to percentage of vehicle-treated controls. Data was then analyzed using a non-linear regression (variable slope (four-parameter)) equation in GraphPad Prism 7.0.
# Table 2 provides THP-1 cytotoxicity assay CC50 values for example compounds. A indicates CC50>10 μM; B indicates CC50 between 1 and 10 μM (inclusive); C indicates CC50<1 μM. NT, not tested.
Structure (SMILES),EC50 (IL-1β) [µM],CC50 at 72 h [1] [µM]
"CC1(C)[C@@H]2C[C@H]3OB(c4cccc(S(=O)(=O)NC(=O)Nc5c6c(cc7c5CCC7)CCC6)c4)O[C@@]3(C)[C@H]1C2 [Example 2, N-((1,2,3,5,6,7-hexahydro-s-indacen-4-yl)carbamoyl)-3-((3aS,4S,6S,7aR)-3a,5,5-trimethylhexahydro-4,6-methanobenzo[d][1,3,2]dioxaborol-2-yl)benzenesulfonamide]",1 to 10,> 10
"CC(C)c1cccc(C(C)C)c1NC(=O)NS(=O)(=O)c1ccc(B(O)O)cc1 [Example 3, (4-(N-((2,6-diisopropylphenyl)carbamoyl)sulfamoyl)phenyl)boronic acid]",1 to 10,> 10
"CC(C)c1cccc(C(C)C)c1NC(=O)NS(=O)(=O)c1ccc(B2O[C@@H]3C[C@@H]4C[C@@H](C4(C)C)[C@]3(C)O2)cc1 [Example 4, N-((2,6-diisopropylphenyl)carbamoyl)-4-((3aS,4S,6S,7aR)-3a,5,5-trimethylhexahydro-4,6-methanobenzo[d][1,3,2]dioxaborol-2-yl)benzenesulfonamide]",> 10,> 10
"Cc1ccc(S(=O)(=O)NC(=O)Nc2c(C(C)C)cccc2C(C)C)cc1B1OC(C)(C)C(C)(C)O1 [Example 6, N-((2,6-diisopropylphenyl)carbamoyl)-4-methyl-3-(4,4,5,5-tetramethyl-1,3,2-dioxaborolan-2-yl)benzenesulfonamide]",1 to 10,> 10
"Cc1ccc(S(=O)(=O)NC(=O)Nc2c(C(C)C)cccc2C(C)C)cc1B(O)O [Example 7, (5-(N-((2,6-diisopropylphenyl)carbamoyl)sulfamoyl)-2-methylphenyl)boronic acid]",1 to 10,> 10
"COc1ccc(B2OC(C)(C)C(C)(C)O2)cc1S(=O)(=O)NC(=O)Nc1c(C(C)C)cccc1C(C)C [Example 9, N-((2,6-diisopropylphenyl)carbamoyl)-2-methoxy-5-(4,4,5,5-tetramethyl-1,3,2-dioxaborolan-2-yl)benzenesulfonamide]",> 10,> 10
"O=C(Nc1c2c(cc3c1CCC3)CCC2)NS(=O)(=O)c1ccc(B(O)O)s1 [Example 12, (5-(N-((1,2,3,5,6,7-hexahydro-s-indacen-4-yl)carbamoyl)sulfamoyl)thiophen-2-yl)boronic acid]",1 to 10,> 10
"O=C(Nc1c2c(cc3c1CCC3)CCC2)NS(=O)(=O)c1ccc(B(O)O)cc1 [Example 13, (4-(N-((1,2,3,5,6,7-hexahydro-s-indacen-4-yl)carbamoyl)sulfamoyl)phenyl)boronic acid]",1 to 10,> 10
"CC1(C)[C@@H]2CC3OB(c4ccc(S(=O)(=O)NC(=O)Nc5c6c(cc7c5CCC7)CCC6)cc4)O[C@@]3(C)[C@H]1C2 (stereo partly drawn) [Example 14, N-((1,2,3,5,6,7-hexahydro-s-indacen-4-yl)carbamoyl)-4-((3aS,4S,6S)-3a,5,5-trimethylhexahydro-4,6-methanobenzo[d][1,3,2]dioxaborol-2-yl)benzenesulfonamide]",1 to 10,> 10
"Cc1c(B2OC(C)(C)C(C)(C)O2)cccc1S(=O)(=O)NC(=O)Nc1c2c(cc3c1CCC3)CCC2 [Example 16, N-((1,2,3,5,6,7-hexahydro-s-indacen-4-yl)carbamoyl)-2-methyl-3-(4,4,5,5-tetramethyl-1,3,2-dioxaborolan-2-yl)benzenesulfonamide]",1 to 10,> 10
"CC(C)n1cc(S(=O)(=O)NC(=O)Nc2cc(B3OC(C)(C)C(C)(C)O3)ccc2C2CC2)cn1 [Example 20, N-((2-cyclopropyl-5-(4,4,5,5-tetramethyl-1,3,2-dioxaborolan-2-yl)phenyl)carbamoyl)-1-isopropyl-1H-pyrazole-4-sulfonamide]",> 10,> 10
"CC(C)n1cc(S(=O)(=O)NC(=O)Nc2cc(B3OC(C)(C)C(C)(C)O3)ccc2C(C)(C)C)cn1 [Example 22, N-((2-(tert-butyl)-5-(4,4,5,5-tetramethyl-1,3,2-dioxaborolan-2-yl)phenyl)carbamoyl)-1-isopropyl-1H-pyrazole-4-sulfonamide]",> 10,> 10
"CC(C)c1cc(B(O)O)cc(C(C)C)c1NC(=O)NS(=O)(=O)c1cnn(C(C)C)c1 [Example 24, (3,5-diisopropyl-4-(3-((1-isopropyl-1H-pyrazol-4-yl)sulfonyl)ureido)phenyl)boronic acid]",1 to 10,> 10

# The next lines start with results.
EC50 (IL-1β) [µM],Structure (SMILES),CC50 at 72 h [1] [µM]
1 to 10,"O=C(Nc1c2c(cc3c1CCC3)CCC2)NS(=O)(=O)c1cccc(B(O)O)c1 [Example 1, (3-(N-((1,2,3,5,6,7-hexahydro-s-indacen-4-yl)carbamoyl)sulfamoyl)phenyl)boronic acid]",> 10
1 to 10,"CC(C)c1cccc(C(C)C)c1NC(=O)NS(=O)(=O)c1ccc(B(O)O)s1 [Example 5, (5-(N-((2,6-diisopropylphenyl)carbamoyl)sulfamoyl)thiophen-2-yl)boronic acid]",> 10
> 10,"COc1ccc(B(O)O)cc1S(=O)(=O)NC(=O)Nc1c(C(C)C)cccc1C(C)C [Example 8, (3-(N-((2,6-diisopropylphenyl)carbamoyl)sulfamoyl)-4-methoxyphenyl)boronic acid]",> 10
> 10,"O=C(Nc1c2c(cc3c1CCC3)CCC2)NS(=O)(=O)c1ccccc1B(O)O [Example 10, (2-(N-((1,2,3,5,6,7-hexahydro-s-indacen-4-yl)carbamoyl)sulfamoyl)phenyl)boronic acid]",> 10
> 10,"CC(C)c1cccc(C(C)C)c1NC(=O)NS(=O)(=O)c1ccccc1B(O)O [Example 11, (2-(N-((2,6-diisopropylphenyl)carbamoyl)sulfamoyl)phenyl)boronic acid]",> 10
1 to 10,"Cc1c(B(O)O)cccc1S(=O)(=O)NC(=O)Nc1c2c(cc3c1CCC3)CCC2 [Example 15, (3-(N-((1,2,3,5,6,7-hexahydro-s-indacen-4-yl)carbamoyl)sulfamoyl)-2-methylphenyl)boronic acid]",> 10
1 to 10,"O=C(Nc1c2c(cc3c1CCC3)CCC2)NS(=O)(=O)c1ccc2c(c1)B(O)OC2 [Example 17, N-((1,2,3,5,6,7-hexahydro-s-indacen-4-yl)carbamoyl)-1-hydroxy-1,3-dihydrobenzo[c][1,2]oxaborole-6-sulfonamide]",> 10
> 10,"CC(C)c1cc(B2OC(C)(C)C(C)(C)O2)ccc1NC(=O)NS(=O)(=O)c1cnn(C(C)C)c1 [Example 18, 1-isopropyl-N-((2-isopropyl-4-(4,4,5,5-tetramethyl-1,3,2-dioxaborolan-2-yl)phenyl)carbamoyl)-1H-pyrazole-4-sulfonamide]",> 10
> 10,"CC(C)c1cc(B(O)O)ccc1NC(=O)NS(=O)(=O)c1cnn(C(C)C)c1 [Example 19, (3-isopropyl-4-(3-((1-isopropyl-1H-pyrazol-4-yl)sulfonyl)ureido)phenyl)boronic acid]",> 10
> 10,"CC(C)n1cc(S(=O)(=O)NC(=O)Nc2cc(B(O)O)ccc2C2CC2)cn1 [Example 21, (4-cyclopropyl-3-(3-((1-isopropyl-1H-pyrazol-4-yl)sulfonyl)ureido)phenyl)boronic acid]",1 to 10
> 10,"CC(C)n1cc(S(=O)(=O)NC(=O)Nc2cc(B(O)O)ccc2C(C)(C)C)cn1 [Example 23, (4-(tert-butyl)-3-(3-((1-isopropyl-1H-pyrazol-4-yl)sulfonyl)ureido)phenyl)boronic acid]",> 10
< 1,"C[N+]12CC(=O)O[B-]1(c1cccc(S(=O)(=O)NC(=O)Nc3c4c(cc5c3CCC5)CCC4)c1)OC(=O)C2 (stereo not shown) [Example 26, N-((1,2,3,5,6,7-hexahydro-s-indacen-4-yl)carbamoyl)-3-(4-methyl-2,6-dioxotetrahydro-2H-414,814-[1,3,2]oxazaborolo[2,3-b][1,3,2]oxazaborol-8-yl)benzenesulfonamide]",> 10
< 1,"C[N+]12CC(=O)O[B-]1(c1ccc(S(=O)(=O)NC(=O)Nc3c4c(cc5c3CCC5)CCC4)cc1)OC(=O)C2 (stereo not shown) [Example 27, N-((1,2,3,5,6,7-hexahydro-s-indacen-4-yl)carbamoyl)-4-(4-methyl-2,6-dioxotetrahydro-2H-414,814-[1,3,2]oxazaborolo[2,3-b][1,3,2]oxazaborol-8-yl)benzenesulfonamide]",> 10
